The source of these data is ChEMBL document CHEMBL3112421, “Small Macrocycles As Highly Active Integrin α2β1 Antagonists” (ACS Med Chem Lett, 2014).

The target in one series is Integrin alpha2/beta1 (Homo sapiens, UniProt P05556+P17301). Description: Antagonist activity at recombinant integrin alpha2 beta1 receptor (unknown origin) assessed as inhibition of interaction with biotinylated collagen type-1 after 3 hrs by solid phase ELISA-type assay. Format: protein-complex assay.
A short description of series [1]: Permeability across human Caco2 cells. Format: ADME, cell-based. Particulars: Caco-2, read-out: permeability. Background: Caco-2 monolayers are a common model of the intestinal barrier.

Integrin alpha2/beta1, sequence (P05556 whole entry): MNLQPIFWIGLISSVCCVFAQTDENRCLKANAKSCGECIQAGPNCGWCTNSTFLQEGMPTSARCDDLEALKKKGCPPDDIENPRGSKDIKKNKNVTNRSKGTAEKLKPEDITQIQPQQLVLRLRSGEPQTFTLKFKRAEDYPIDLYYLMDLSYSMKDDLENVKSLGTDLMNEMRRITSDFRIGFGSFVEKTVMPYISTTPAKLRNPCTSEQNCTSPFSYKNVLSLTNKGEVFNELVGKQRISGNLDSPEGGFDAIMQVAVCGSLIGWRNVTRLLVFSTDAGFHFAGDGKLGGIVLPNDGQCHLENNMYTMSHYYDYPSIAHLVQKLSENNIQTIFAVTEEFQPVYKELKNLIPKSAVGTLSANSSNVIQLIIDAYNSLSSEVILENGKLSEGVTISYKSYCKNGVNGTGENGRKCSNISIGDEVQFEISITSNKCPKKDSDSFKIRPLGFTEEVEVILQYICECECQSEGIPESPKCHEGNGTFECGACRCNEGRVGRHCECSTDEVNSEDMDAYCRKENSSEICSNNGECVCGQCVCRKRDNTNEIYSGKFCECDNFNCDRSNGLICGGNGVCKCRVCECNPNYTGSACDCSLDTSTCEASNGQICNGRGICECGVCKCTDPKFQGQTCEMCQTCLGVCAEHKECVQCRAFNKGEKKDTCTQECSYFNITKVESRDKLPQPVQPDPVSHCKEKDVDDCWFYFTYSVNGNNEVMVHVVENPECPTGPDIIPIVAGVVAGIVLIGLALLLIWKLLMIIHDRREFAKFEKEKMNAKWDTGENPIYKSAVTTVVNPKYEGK
Integrin alpha2/beta1, sequence (P17301 whole entry): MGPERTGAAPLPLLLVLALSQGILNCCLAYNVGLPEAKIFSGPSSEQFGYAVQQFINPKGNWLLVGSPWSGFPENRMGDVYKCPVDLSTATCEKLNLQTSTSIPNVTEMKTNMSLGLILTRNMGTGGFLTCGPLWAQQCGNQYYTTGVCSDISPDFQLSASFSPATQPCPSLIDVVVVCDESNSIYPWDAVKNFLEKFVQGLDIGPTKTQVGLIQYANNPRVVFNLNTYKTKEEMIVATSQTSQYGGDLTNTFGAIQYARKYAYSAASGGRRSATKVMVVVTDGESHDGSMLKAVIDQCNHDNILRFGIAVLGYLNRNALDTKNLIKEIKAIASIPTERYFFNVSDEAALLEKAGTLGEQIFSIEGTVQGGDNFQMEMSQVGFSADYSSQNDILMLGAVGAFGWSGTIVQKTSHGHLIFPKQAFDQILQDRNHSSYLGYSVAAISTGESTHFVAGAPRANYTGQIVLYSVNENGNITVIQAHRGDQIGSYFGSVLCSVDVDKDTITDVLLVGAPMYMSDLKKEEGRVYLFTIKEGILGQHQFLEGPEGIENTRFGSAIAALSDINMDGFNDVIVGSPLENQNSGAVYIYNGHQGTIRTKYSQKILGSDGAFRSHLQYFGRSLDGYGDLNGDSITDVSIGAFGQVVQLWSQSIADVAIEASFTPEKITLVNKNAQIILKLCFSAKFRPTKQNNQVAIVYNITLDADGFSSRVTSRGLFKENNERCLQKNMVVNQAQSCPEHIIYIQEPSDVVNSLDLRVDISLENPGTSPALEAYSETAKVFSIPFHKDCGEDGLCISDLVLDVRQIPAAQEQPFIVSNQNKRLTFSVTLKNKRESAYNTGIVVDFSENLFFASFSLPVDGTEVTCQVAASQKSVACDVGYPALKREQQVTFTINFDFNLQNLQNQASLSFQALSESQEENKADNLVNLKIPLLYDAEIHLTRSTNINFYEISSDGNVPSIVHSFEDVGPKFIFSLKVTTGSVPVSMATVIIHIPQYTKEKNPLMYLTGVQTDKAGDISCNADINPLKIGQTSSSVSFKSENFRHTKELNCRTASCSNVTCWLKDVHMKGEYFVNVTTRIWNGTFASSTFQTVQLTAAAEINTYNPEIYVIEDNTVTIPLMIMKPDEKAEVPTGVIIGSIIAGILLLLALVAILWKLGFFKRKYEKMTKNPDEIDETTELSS

In the case of `O=C1N[C@H](C(=O)O)Cc2ccc(cc2)OCCCCOc2ccc(Cl)c1c2`, the IC50 (usually the midpoint of a concentration-inhibition curve) at Integrin alpha2/beta1 was 731 nM. In the case of `O=C1NC(C(=O)O)CCc2cn(cn2)C/C=C/COc2ccc(Cl)c1c2` (racemic), on Integrin alpha2/beta1, the IC50 was above 5000 nM. Consider `O=C1N[C@H](C(=O)O)Cc2cccc(c2)OC/C=C/COc2cccc(Cl)c21`, for which, on Integrin alpha2/beta1, the IC50 turned out to be 588 nM.

For `COC(=O)[C@@H]1Cc2cn(cn2)C/C=C/COc2ccc(Cl)c(c2)C(=O)N1`, the Papp in series [1] is above 2 ×10⁻⁶ cm/s. With `O=C1N[C@H](C(=O)O)Cc2ccc(nc2)OCCCCOc2ccc(Cl)c1c2`, the half-maximal inhibitory concentration (IC50) at Integrin alpha2/beta1 came out at 792 nM. For the compound `O=C1N[C@H](C(=O)O)Cc2cn(cn2)CCCCCOc2ccc(Cl)c1c2`, the IC50 at Integrin alpha2/beta1 was 731 nM. Regarding `Cc1ccc2cc1C(=O)N[C@H](C(=O)O)Cc1cccc(c1)OC/C=C/CO2`, at Integrin alpha2/beta1, the IC50 was determined as 1050 nM. Still for that read-out and setting: with `O=C1N[C@H](C(=O)O)Cc2cn(nn2)C/C=C/COc2ccc(Cl)c1c2` the figure was 34 nM. Turning to `O=C1N[C@H](C(=O)O)Cc2cn(cn2)C/C=C/Cc2ccc(Cl)c1c2`, the IC50 at Integrin alpha2/beta1 was found to be 176 nM. Take `O=C1N[C@H](C(=O)O)Cc2cn(cn2)C/C=C/COc2ccc(Cl)c1c2Cl`: the IC50 at Integrin alpha2/beta1 was 869 nM. On the same count and under the same terms, with `O=C1N[C@H](C(=O)O)Cc2cccc(c2)OCCCCOc2ccc(Cl)c1c2` the figure was 142 nM; with `O=C1N[C@H](C(=O)O)Cc2cccc(c2)OC/C=C/COc2ccc(Cl)c1c2`, 233 nM. Turning to `O=C1N[C@@H](C(=O)O)Cc2cn(cn2)CCCCOc2ccc(Cl)c1c2`, on Integrin alpha2/beta1, the 50% inhibitory concentration (IC50) was above 4000 nM. In the case of `O=C1N[C@H](C(=O)O)Cc2ccc(nc2)OC/C=C/COc2ccc(Cl)c1c2`, the half-maximal inhibitory concentration (IC50) at Integrin alpha2/beta1 was determined as 134 nM. Take `COc1cccc2c1C(=O)N[C@H](C(=O)O)Cc1cccc(c1)OCCCCO2`: the IC50 at Integrin alpha2/beta1 is above 4000 nM.

On to `Cc1cccc(Cl)c1C(=O)N[C@@H](Cc1ccc(NC(=O)c2c(Cl)cccc2Cl)cc1)C(=O)O`, for which the IC50 at Integrin alpha2/beta1 is 214 nM. `O=C1N[C@@H](C(=O)O)Cc2cn(cn2)C/C=C/COc2ccc(Cl)c1c2`: the IC50 at Integrin alpha2/beta1 is 909 nM. On the same count and under the same terms, with `Cc1ccc2cc1C(=O)N[C@H](C(=O)O)Cc1cccc(c1)OCCCCO2` the figure was 745 nM; with `O=C1N[C@H](C(=O)O)Cc2cccc(c2)OC/C=C/COc2ccc1c(F)c2`, above 1000 nM. Take `O=C1N[C@H](C(=O)O)Cc2cccc(c2)OCCCCOc2cccc1c2`: the IC50 at Integrin alpha2/beta1 was above 10000 nM. As for `O=C1N[C@H](C(=O)O)Cc2cccc(c2)OC/C=C/COc2ccc([N+](=O)[O-])c1c2`, the IC50 at Integrin alpha2/beta1 is 667 nM. In the case of `O=C1N[C@H](C(=O)O)Cc2cccc(c2)OCCCCOc2ccc1c(F)c2`, on Integrin alpha2/beta1, the IC50 was above 4000 nM.

As for `O=C1NC(C(=O)O)CCc2cn(cn2)CCCCOc2ccc(Cl)c1c2` (racemic), at Integrin alpha2/beta1, the IC50 was above 5000 nM.
